Marks after values point to notes of the source that are not given here.
Experiment: Kinetics of removal of LPS with different agitation techniques and stearate salts
Assay type: biochemical
Conditions: for Endotoxin Detected: 5 mL SRW, baseline 1,502 EU; for Percent (%) Removed: SRW baseline 1,502 EU
Protocol: 5 mL of SRW was added to each of the tubes. Each solution was tested for endotoxin removal after agitation based on with sonication, vortexing, or test tube rolling. Sonication samples were sonicated at each indicated time interval for 30 seconds at a magnitude of 30. Vortex samples were vortexed at each indicated time interval for 30 seconds at 2500 RPM. Rolling samples were constantly rolling at 10 rpm. The samples were tested on the MCS for endotoxin at 1 minute, 20 minutes, 40 minutes, 60 minutes, and 80 minutes.

Molecule | Endotoxin Detected (Rolling, 1 minute) | Percent (%) Removed (Rolling, 1 minute) | Endotoxin Detected (Rolling, 20 minutes) | Percent (%) Removed (Rolling, 20 minutes) | Endotoxin Detected (Rolling, 40 minutes) | Percent (%) Removed (Rolling, 40 minutes) | Endotoxin Detected (Rolling, 60 minutes) | Percent (%) Removed (Rolling, 60 minutes) | Endotoxin Detected (Rolling, 80 minutes) | Percent (%) Removed (Rolling, 80 minutes) | Endotoxin Detected (Sonication, 1 minute) | Percent (%) Removed (Sonication, 1 minute) | Endotoxin Detected (Sonication, 20 minutes) | Percent (%) Removed (Sonication, 20 minutes) | Endotoxin Detected (Sonication, 40 minutes) | Percent (%) Removed (Sonication, 40 minutes) | Endotoxin Detected (Sonication, 60 minutes) | Percent (%) Removed (Sonication, 60 minutes) | Endotoxin Detected (Sonication, 80 minutes) | Percent (%) Removed (Sonication, 80 minutes) | further results
CCCCCCCCCCCCCCCCCC(=O)[O-].[Al+3].[OH-].[OH-] [Aluminum Monostearate] | 221* EU | 85.3% | 1,260 EU | 16.1% | 1,240 EU | 17.4% | 672 EU | 55.3% | 1,220 EU | 18.8% | 626 EU | 58.3% | 406 EU | 73% | 375 EU | 75% | 434 EU | 71.1% | 291 EU | 80.6% | Endotoxin Detected (Vortexing, 1 minute): 817 EU; Percent (%) Removed (Vortexing, 1 minute): 45.6%; Endotoxin Detected (Vortexing, 20 minutes): 849 EU; Percent (%) Removed (Vortexing, 20 minutes): 43.5%; Endotoxin Detected (Vortexing, 40 minutes): 786 EU; Percent (%) Removed (Vortexing, 40 minutes): 47.7%; Endotoxin Detected (Vortexing, 60 minutes): 801 EU; Percent (%) Removed (Vortexing, 60 minutes): 46.7%; Endotoxin Detected (Vortexing, 80 minutes): 757 EU; Percent (%) Removed (Vortexing, 80 minutes): 49.6%
Magnesium Stearate | 1,060 EU | 29.4% | 1,120 EU | 25.4% | 1,060 EU | 29.4% | 1,120 EU | 25.4% | 1,190 EU | 20.8% | 743 EU | 50.5% | 716 EU | 52.3% | 824 EU | 45.1% | 884 EU | 41.1% | 703 EU | 53.2% | Endotoxin Detected (Vortexing, 1 minute): 884 EU; Percent (%) Removed (Vortexing, 1 minute): 41.1%; Endotoxin Detected (Vortexing, 20 minutes): 1,000 EU; Percent (%) Removed (Vortexing, 20 minutes): 33.4%; Endotoxin Detected (Vortexing, 40 minutes): 901 EU; Percent (%) Removed (Vortexing, 40 minutes): 40%; Endotoxin Detected (Vortexing, 60 minutes): 958 EU; Percent (%) Removed (Vortexing, 60 minutes): 36.2%; Endotoxin Detected (Vortexing, 80 minutes): 1,060 EU; Percent (%) Removed (Vortexing, 80 minutes): 29.4%

— patent publication US20180077929A1, “METHODS AND SYSTEMS FOR TREATING MEDICAL DEVICES AND FLUIDS” (priority 2016, published 2018)
